Several values for one entry are separate records, joined by “and”; a condition that tells them apart may be missing. Equal entries are not always repeated. Toxic doses and inconclusive results are not listed. Rule as the data show it: active = T/C of 150% or more; inactive = T/C below 125%.
System: L1210 leukemia ip in BDF1 mice, survival T/C
Experiment: NCI In Vivo Anticancer Drug Screen. Data for tumor model L1210 Leukemia (intraperitoneal) in B6D2F1 (BDF1) mice
Conditions: endpoint: mean survival time, higher = longer survival
Method in brief: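 Value reflects the ratio of survival in compound-treated mice to survival in vehicle-treated controls, with both groups carrying the same transplanted tumor.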

[1] = dose: 25.0 mg/kg/injection, schedule: Q04DX003 (ip), vehicle: Klucel (hydroxypropylcellulose) (HPC)
[2] = dose: 100.0 mg/kg/injection, schedule: Q04DX002 (ip), vehicle: saline
[3] = dose: 200.0 mg/kg/injection, schedule: Q04DX002 (ip), vehicle: saline
[4] = dose: 400.0 mg/kg/injection, schedule: Q04DX002 (ip), vehicle: saline
[5] = dose: 50.0 mg/kg/injection, schedule: Q04DX003 (ip), vehicle: saline with Tween-80
[6] = dose: 100.0 mg/kg/injection, schedule: Q01DX009 (ip), vehicle: saline with Tween-80
[7] = dose: 100.0 mg/kg/injection, schedule: Q04DX003 (ip), vehicle: saline with Tween-80
[8] = dose: 200.0 mg/kg/injection, schedule: Q01DX009 (ip), vehicle: saline with Tween-80
[9] = dose: 200.0 mg/kg/injection, schedule: Q04DX003 (ip), vehicle: saline with Tween-80
[10] = dose: 400.0 mg/kg/injection, schedule: Q04DX003 (ip), vehicle: saline with Tween-80
[11] = dose: 100.0 mg/kg/injection, schedule: Q04DX002 (ip), vehicle: saline with Tween-80
[12] = dose: 200.0 mg/kg/injection, schedule: Q04DX002 (ip), vehicle: saline with Tween-80
[13] = dose: 100.0 mg/kg/injection, schedule: Q01DX001 (ip), vehicle: saline
[14] = dose: 200.0 mg/kg/injection, schedule: Q01DX001 (ip), vehicle: saline
[15] = dose: 400.0 mg/kg/injection, schedule: Q01DX001 (ip), vehicle: saline
[16] = dose: 100.0 mg/kg/injection, schedule: Q01DX001 (ip), vehicle: carboxymethylcellulose (CMC)
[17] = dose: 200.0 mg/kg/injection, schedule: Q01DX001 (ip), vehicle: carboxymethylcellulose (CMC)
[18] = dose: 400.0 mg/kg/injection, schedule: Q01DX001 (ip), vehicle: carboxymethylcellulose (CMC)
[19] = dose: 100.0 mg/kg/injection, schedule: Q01DX009 (ip), vehicle: Klucel (hydroxypropylcellulose) (HPC)
[20] = dose: 100.0 mg/kg/injection, schedule: Q04DX003 (ip), vehicle: Klucel (hydroxypropylcellulose) (HPC)
[21] = dose: 200.0 mg/kg/injection, schedule: Q01DX009 (ip), vehicle: Klucel (hydroxypropylcellulose) (HPC)
[22] = dose: 200.0 mg/kg/injection, schedule: Q04DX003 (ip), vehicle: Klucel (hydroxypropylcellulose) (HPC)
[23] = dose: 400.0 mg/kg/injection, schedule: Q01DX009 (ip), vehicle: Klucel (hydroxypropylcellulose) (HPC)
[24] = dose: 400.0 mg/kg/injection, schedule: Q04DX003 (ip), vehicle: Klucel (hydroxypropylcellulose) (HPC)
[25] = dose: 100.0 mg/kg/injection, schedule: Q04DX003 (ip), vehicle: saline
[26] = dose: 200.0 mg/kg/injection, schedule: Q04DX003 (ip), vehicle: saline
[27] = dose: 400.0 mg/kg/injection, schedule: Q04DX003 (ip), vehicle: saline
[28] = dose: 50.0 mg/kg/injection, schedule: Q01DX001 (ip), vehicle: saline

Measured: T/C

Cc1ccc2c(n1)Nc1ncnc(N)c1S2
inactive: dose: 12.5 mg/kg/injection, schedule: Q04DX003 (ip), vehicle: Klucel (hydroxypropylcellulose) (HPC) 96 % of control | [1] 108 % of control

COC1(NC(=O)CCCC(N)C(=O)O)C(=O)N2C(C(=O)O)=C(COC(N)=O)CSC21 (stereo unspecified)
inactive: [2] 103 % of control | [3] 122 % of control | [4] 107 % of control

CC1=NN(c2cccc(Cl)c2)C(=O)C1
inactive: [5] 105 % of control | [6] 93 % of control | [7] 94 % of control | [8] 106 % of control | [9] 96 % of control and 92 % of control | [10] 94 % of control

CCCCc1cn(C(C)=O)nn1
inactive: [11] 106 % of control | [12] 100 % of control

O=C(O)c1cc(=O)c2ccc(Cl)cc2[nH]1
inactive: [13] 90 % of control | dose: 100.0 mg/kg/injection, schedule: Q04DX003 (ip), vehicle: other 88 % of control | [14] 98 % of control | dose: 200.0 mg/kg/injection, schedule: Q04DX003 (ip), vehicle: other 91 % of control | [15] 102 % of control | dose: 400.0 mg/kg/injection, schedule: Q04DX003 (ip), vehicle: other 98 % of control

ClCC1=NCCN1
inactive: dose: 12.5 mg/kg/injection, schedule: Q04DX002 (ip), vehicle: Klucel (hydroxypropylcellulose) (HPC) 97 % of control | dose: 25.0 mg/kg/injection, schedule: Q04DX002 (ip), vehicle: Klucel (hydroxypropylcellulose) (HPC) 97 % of control | dose: 50.0 mg/kg/injection, schedule: Q04DX002 (ip), vehicle: Klucel (hydroxypropylcellulose) (HPC) 97 % of control

O=P1(Nc2ccccc2)OCCCN1Cc1ccccc1Cl (stereo unspecified)
inactive: dose: 50.0 mg/kg/injection, schedule: Q01DX001 (ip), vehicle: carboxymethylcellulose (CMC) 98 % of control | [16] 98 % of control | [17] 98 % of control | [18] 93 % of control

COc1ccc(/C=C2/CN(c3ccc(C(=O)O)cc3)C(=O)C2=O)cc1
inactive: [13] 95 % of control | [14] 98 % of control | [15] 98 % of control

COC(=O)C1C=CCC2C(=O)C=C(C)C(=O)C12C (stereo unspecified)
inactive: [19] 94 % of control | [20] 96 % of control | [21] 92 % of control | [22] 100 % of control | [23] 97 % of control | [24] 96 % of control

COc1cc2c(cc1[N+](=O)[O-])OCO2
inactive: [7] 104 % of control | [9] 97 % of control | [10] 98 % of control

CCCC/C(CC)=N\N=C(/CC)CCCC
inactive: dose: 50.0 mg/kg/injection, schedule: Q04DX002 (ip), vehicle: saline 91 % of control | [2] 102 % of control | [3] 88 % of control | [4] 96 % of control

Nc1nc(-c2cccc([N+](=O)[O-])c2)nc2[nH]ncc12
inactive: dose: 37.5 mg/kg/injection, schedule: Q01DX001 (ip), vehicle: Klucel (hydroxypropylcellulose) (HPC) 98 % of control | dose: 75.0 mg/kg/injection, schedule: Q01DX001 (ip), vehicle: Klucel (hydroxypropylcellulose) (HPC) 98 % of control | dose: 150.0 mg/kg/injection, schedule: Q01DX001 (ip), vehicle: Klucel (hydroxypropylcellulose) (HPC) 96 % of control

CC([NH-])C(=O)O.O=C(O)CN(CC(=O)O)CC(=O)O.[Co+2]
inactive: dose: 50.0 mg/kg/injection, schedule: Q01DX009 (ip), vehicle: saline 110 % of control | dose: 100.0 mg/kg/injection, schedule: Q01DX009 (ip), vehicle: saline 103 % of control | [25] 104 % of control | dose: 200.0 mg/kg/injection, schedule: Q01DX009 (ip), vehicle: saline 93 % of control | [26] 106 % of control | [27] 100 % of control

CC1C2C=CC1C(c1c3ccc(=O)c(O)c-3oc3c(O)c(O)ccc13)C2C(=O)O (stereo unspecified)
inactive: [25] 105 % of control | [26] 103 % of control | [27] 100 % of control

COc1nc(=S)nc(OC)[nH]1
inactive: dose: 100.0 mg/kg/injection, schedule: Q01DX Z (ip), vehicle: methylcellulose (MC) 95 % of control

NC(=S)N/N=C/c1cc(Cl)ccc1O
inactive: [16] 94 % of control | [17] 100 % of control | [18] 96 % of control

CCC(C)N (stereo unspecified)
inactive: [25] 95 % of control | [26] 95 % of control

COc1ccc(N=CN(C)C)cc1
inactive: [28] 100 % of control | [13] 96 % of control

C=C(NC(=O)C(=C)NC(=O)c1csc(C2=NC3c4csc(n4)C4NC(=O)c5csc(n5)C(C(C)(O)C(C)O)NC(=O)C5CSC(=N5)/C(=C/C)NC(=O)C(C(C)O)NC(=O)c5csc(n5)C3(CC2)NC(=O)C(C)NC(=O)C(=C)NC(=O)C(=C)NC(=O)C(C(C)C)NC2C=Cc3c(C(C)O)cc(nc3C2O)C(=O)OC4C)n1)C(N)=O (stereo unspecified)
inactive: dose: 3.12 mg/kg/injection, schedule: Q01DX009 (ip), vehicle: saline 101 % of control | dose: 6.25 mg/kg/injection, schedule: Q01DX009 (ip), vehicle: saline 117 % of control

CC(=O)OC(C)C1C2=C(C(=O)CC1(C)O)C(=O)c1c(ccc(-c3ccc4c(c3O)C(=O)C3=C(C4=O)C(C(C)OC(C)=O)C(C)(O)CC3=O)c1O)C2=O (stereo unspecified)
inactive: dose: 6.25 mg/kg/injection, schedule: Q01DX009 (ip), vehicle: saline with Tween-80 111 % of control | dose: 12.5 mg/kg/injection, schedule: Q01DX009 (ip), vehicle: saline with Tween-80 109 % of control

CC(C)(C)N1CC(C(=O)O)C1
inactive: [13] 97 % of control | [14] 103 % of control | [15] 97 % of control

COC1OC2COC(c3ccccc3)OC2C(OS(=O)(=O)c2ccc(C)cc2)C1OC (stereo unspecified)
inactive: [11] 107 % of control | [12] 89 % of control | dose: 400.0 mg/kg/injection, schedule: Q04DX002 (ip), vehicle: saline with Tween-80 93 % of control

CCCCCC/C=C/C1CC(=O)OC1=O (stereo unspecified)
inactive: dose: 25.0 mg/kg/injection, schedule: Q01DX009 (ip), vehicle: saline with Tween-80 100 % of control | dose: 50.0 mg/kg/injection, schedule: Q01DX009 (ip), vehicle: saline with Tween-80 88 % of control | [5] 98 % of control | [6] 100 % of control | [7] 101 % of control and 112 % of control | [8] 97 % of control | [9] 95 % of control and 101 % of control | [10] 103 % of control

CC12CCC3=C(OCCO3)C1=CCC1C2CCC2(C)C(O)CCC12 (stereo unspecified)
inactive: dose: 50.0 mg/kg/injection, schedule: Q01DX001 (sc), vehicle: steriod suspending solution 95 % of control | dose: 100.0 mg/kg/injection, schedule: Q01DX001 (sc), vehicle: steriod suspending solution 91 % of control | dose: 200.0 mg/kg/injection, schedule: Q01DX001 (sc), vehicle: steriod suspending solution 103 % of control | dose: 400.0 mg/kg/injection, schedule: Q01DX001 (sc), vehicle: steriod suspending solution 101 % of control

[Co+2].[N-]=Cc1ccccc1O.[N-]=Cc1ccccc1O
inactive: [1] 110 % of control | dose: 50.0 mg/kg/injection, schedule: Q04DX003 (ip), vehicle: Klucel (hydroxypropylcellulose) (HPC) 113 % of control | [20] 99 % of control and 118 % of control

CC1(C)OC2OC(COC(=O)c3ccccc3)C(=O)C2O1 (stereo unspecified)
inactive: [28] 101 % of control | [13] 106 % of control | [14] 101 % of control | [15] 98 % of control

ON(Cc1ccccc1)Cc1ccccc1
inactive: [19] 98 % of control | [20] 103 % of control | [21] 107 % of control | [22] 102 % of control | [23] 98 % of control | [24] 100 % of control

CC(=O)c1cc(-c2ccc(Cl)c(Cl)c2)nc2c(Cl)cc(Cl)cc12
inactive: [13] 104 % of control | [14] 103 % of control | [15] 103 % of control

O=C(NCCCl)Nn1c2ccccc2c2ccccc21
inactive: [19] 86 % of control | [20] 104 % of control | [21] 95 % of control | [22] 98 % of control | [23] 88 % of control | [24] 106 % of control

From PubChem BioAssay AID248 (DTP/NCI, 2004)
